AC50 data for 15 compounds are collected here from ChEMBL document CHEMBL5291721, “A preclinical secondary pharmacology resource illuminates target-adverse drug reaction associations of marketed drugs” (Nat Commun, 2023).

Assay [1] concerns the target 5-hydroxytryptamine receptor 7 (Homo sapiens, UniProt P34969).
In assay [2] the target is T1, Alpha-2A adrenergic receptor (Homo sapiens, UniProt P08913).
T1 sequence (P08913 whole entry): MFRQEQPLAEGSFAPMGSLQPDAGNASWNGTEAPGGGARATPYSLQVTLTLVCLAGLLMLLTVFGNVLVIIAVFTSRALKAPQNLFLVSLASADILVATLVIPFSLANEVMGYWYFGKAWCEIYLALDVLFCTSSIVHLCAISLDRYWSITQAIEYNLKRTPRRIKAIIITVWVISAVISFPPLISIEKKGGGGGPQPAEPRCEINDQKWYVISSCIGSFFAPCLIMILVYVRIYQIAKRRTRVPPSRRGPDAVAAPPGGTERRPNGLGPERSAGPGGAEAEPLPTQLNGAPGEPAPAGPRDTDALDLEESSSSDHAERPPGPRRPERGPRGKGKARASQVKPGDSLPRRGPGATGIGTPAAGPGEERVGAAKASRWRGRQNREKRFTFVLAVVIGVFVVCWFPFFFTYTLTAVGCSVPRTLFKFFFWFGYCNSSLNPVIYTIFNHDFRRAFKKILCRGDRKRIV

For assay [3], the target named is Gamma-aminobutyric acid receptor subunit alpha-1/alpha-2/beta-2/gamma-2 (Homo sapiens, UniProt P14867+P18507+P47869+P47870). It counts as functional, cell-based.
Sequence of Gamma-aminobutyric acid receptor subunit alpha-1/alpha-2/beta-2/gamma-2 (P14867 whole entry): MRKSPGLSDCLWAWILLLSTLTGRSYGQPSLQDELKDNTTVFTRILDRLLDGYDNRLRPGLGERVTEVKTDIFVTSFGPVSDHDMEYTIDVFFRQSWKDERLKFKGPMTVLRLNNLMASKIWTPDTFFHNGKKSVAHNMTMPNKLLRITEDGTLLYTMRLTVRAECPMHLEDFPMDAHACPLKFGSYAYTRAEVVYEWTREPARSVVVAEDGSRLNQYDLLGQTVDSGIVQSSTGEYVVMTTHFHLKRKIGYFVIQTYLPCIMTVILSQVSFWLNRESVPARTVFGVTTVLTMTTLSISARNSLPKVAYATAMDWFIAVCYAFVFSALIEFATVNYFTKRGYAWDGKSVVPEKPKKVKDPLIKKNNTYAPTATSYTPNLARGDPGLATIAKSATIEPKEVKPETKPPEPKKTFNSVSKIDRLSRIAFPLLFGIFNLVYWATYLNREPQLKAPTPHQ
Sequence of Gamma-aminobutyric acid receptor subunit alpha-1/alpha-2/beta-2/gamma-2 (P47870 whole entry): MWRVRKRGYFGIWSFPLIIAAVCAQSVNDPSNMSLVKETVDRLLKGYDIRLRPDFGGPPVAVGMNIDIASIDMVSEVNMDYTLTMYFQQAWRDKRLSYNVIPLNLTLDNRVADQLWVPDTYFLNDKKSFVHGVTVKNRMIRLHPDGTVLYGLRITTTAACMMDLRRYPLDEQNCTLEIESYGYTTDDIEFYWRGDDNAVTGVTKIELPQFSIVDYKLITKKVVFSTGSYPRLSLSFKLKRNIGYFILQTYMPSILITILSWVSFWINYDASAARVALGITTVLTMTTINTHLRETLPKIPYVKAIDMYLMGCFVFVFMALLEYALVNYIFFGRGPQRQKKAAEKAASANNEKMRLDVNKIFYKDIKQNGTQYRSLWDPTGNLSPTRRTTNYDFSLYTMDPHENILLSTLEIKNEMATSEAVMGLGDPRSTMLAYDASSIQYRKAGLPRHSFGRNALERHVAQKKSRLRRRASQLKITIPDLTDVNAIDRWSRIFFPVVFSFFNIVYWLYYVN
Sequence of Gamma-aminobutyric acid receptor subunit alpha-1/alpha-2/beta-2/gamma-2 (P18507 whole entry): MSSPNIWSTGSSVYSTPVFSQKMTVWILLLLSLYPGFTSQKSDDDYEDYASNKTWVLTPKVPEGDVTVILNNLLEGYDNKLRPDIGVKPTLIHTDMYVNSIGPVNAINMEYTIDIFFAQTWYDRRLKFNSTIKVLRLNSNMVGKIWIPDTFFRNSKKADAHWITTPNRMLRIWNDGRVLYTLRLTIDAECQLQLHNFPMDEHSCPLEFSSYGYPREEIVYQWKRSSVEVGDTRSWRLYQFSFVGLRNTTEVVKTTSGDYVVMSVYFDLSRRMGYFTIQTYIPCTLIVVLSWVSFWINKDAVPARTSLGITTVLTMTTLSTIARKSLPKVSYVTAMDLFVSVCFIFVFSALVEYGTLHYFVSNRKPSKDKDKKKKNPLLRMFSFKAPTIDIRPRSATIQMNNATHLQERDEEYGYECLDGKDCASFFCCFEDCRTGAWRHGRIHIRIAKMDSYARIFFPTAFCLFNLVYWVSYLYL
Sequence of Gamma-aminobutyric acid receptor subunit alpha-1/alpha-2/beta-2/gamma-2 (P47869 whole entry): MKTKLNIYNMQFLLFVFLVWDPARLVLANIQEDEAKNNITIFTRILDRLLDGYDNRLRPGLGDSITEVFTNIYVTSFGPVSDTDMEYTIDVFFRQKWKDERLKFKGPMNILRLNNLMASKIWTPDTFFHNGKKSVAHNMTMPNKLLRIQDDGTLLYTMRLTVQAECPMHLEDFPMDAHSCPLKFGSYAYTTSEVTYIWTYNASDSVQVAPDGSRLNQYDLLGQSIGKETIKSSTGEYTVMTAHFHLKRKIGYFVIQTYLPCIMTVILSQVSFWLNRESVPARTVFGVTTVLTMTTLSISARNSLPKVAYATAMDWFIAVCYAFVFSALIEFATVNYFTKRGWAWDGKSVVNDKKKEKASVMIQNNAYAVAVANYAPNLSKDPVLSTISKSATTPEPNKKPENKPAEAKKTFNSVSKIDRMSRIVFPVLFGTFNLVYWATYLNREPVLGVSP
Another assay deals with Histamine H2 receptor (Homo sapiens, UniProt P25021).
Sequence of Histamine H2 receptor (P25021 whole entry): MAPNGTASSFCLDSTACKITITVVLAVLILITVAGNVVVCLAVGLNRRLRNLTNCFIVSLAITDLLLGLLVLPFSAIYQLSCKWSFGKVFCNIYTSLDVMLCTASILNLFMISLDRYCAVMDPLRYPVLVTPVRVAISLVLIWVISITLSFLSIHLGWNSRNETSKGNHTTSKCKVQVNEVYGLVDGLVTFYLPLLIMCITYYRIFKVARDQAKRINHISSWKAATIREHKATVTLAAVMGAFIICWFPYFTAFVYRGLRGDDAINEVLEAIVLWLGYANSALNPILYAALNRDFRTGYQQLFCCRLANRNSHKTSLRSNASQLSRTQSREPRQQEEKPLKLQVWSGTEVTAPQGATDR
The target of assay [4] is 5-hydroxytryptamine receptor 2B (Homo sapiens, UniProt P41595).
Sequence of 5-hydroxytryptamine receptor 2B (P41595 whole entry): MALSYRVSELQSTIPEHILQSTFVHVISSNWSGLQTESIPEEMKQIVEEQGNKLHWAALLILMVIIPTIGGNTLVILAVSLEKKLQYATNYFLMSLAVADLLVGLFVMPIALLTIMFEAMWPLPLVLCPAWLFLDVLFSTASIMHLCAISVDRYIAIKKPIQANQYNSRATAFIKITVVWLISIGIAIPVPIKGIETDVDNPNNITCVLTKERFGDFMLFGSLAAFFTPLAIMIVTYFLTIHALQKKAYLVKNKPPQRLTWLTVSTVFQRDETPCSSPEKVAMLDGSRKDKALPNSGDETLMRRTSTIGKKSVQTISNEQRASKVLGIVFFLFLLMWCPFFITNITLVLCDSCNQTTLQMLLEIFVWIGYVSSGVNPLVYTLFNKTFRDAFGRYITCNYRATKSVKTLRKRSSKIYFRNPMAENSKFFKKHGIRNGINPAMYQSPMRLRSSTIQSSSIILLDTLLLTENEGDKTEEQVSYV
For the next assay, the target named is T2, Progesterone receptor (Homo sapiens, UniProt P06401).
T2 sequence (P06401 whole entry): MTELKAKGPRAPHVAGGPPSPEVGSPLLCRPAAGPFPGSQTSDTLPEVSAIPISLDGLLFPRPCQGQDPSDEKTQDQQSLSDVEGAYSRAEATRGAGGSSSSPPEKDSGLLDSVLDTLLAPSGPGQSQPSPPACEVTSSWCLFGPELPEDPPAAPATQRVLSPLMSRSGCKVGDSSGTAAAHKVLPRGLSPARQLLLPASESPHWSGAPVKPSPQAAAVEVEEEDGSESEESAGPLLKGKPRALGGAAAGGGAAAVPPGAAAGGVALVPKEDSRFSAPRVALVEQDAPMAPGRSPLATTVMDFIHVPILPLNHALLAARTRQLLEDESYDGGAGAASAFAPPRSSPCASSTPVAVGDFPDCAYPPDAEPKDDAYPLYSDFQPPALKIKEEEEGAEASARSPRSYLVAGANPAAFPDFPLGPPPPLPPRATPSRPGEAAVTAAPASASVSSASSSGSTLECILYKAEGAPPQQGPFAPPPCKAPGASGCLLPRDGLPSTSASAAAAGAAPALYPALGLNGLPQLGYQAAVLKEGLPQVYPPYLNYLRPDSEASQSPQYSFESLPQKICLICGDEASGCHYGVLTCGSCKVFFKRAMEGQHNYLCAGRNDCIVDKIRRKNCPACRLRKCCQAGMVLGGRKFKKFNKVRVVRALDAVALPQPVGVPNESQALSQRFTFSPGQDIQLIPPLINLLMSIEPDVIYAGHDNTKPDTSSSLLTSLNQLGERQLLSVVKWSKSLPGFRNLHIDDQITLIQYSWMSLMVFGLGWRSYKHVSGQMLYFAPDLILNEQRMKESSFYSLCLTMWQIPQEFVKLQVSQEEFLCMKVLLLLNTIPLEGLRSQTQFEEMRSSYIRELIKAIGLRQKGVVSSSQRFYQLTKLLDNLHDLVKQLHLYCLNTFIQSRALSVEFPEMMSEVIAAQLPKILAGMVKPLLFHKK

Assay [5] has as its target Neurotensin receptor type 1 (Homo sapiens, UniProt P30989).
The target in assay [6] is T3, Muscarinic acetylcholine receptor M1 (Homo sapiens, UniProt P11229).
T3 sequence (P11229 whole entry): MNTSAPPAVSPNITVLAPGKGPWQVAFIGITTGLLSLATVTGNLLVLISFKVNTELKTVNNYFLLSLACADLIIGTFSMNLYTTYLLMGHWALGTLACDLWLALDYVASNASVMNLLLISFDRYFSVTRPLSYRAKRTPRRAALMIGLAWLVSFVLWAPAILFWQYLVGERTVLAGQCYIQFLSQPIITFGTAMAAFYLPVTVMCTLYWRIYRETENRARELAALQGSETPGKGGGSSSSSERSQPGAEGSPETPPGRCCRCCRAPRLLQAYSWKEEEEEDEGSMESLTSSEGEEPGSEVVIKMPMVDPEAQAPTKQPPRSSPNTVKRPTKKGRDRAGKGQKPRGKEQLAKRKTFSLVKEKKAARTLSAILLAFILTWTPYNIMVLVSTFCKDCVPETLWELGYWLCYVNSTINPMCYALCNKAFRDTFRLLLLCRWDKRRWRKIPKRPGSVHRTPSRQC
It counts as functional, cell-based.
Also: assay procedure not described here.

Sequence of 5-hydroxytryptamine receptor 7 (P34969 whole entry): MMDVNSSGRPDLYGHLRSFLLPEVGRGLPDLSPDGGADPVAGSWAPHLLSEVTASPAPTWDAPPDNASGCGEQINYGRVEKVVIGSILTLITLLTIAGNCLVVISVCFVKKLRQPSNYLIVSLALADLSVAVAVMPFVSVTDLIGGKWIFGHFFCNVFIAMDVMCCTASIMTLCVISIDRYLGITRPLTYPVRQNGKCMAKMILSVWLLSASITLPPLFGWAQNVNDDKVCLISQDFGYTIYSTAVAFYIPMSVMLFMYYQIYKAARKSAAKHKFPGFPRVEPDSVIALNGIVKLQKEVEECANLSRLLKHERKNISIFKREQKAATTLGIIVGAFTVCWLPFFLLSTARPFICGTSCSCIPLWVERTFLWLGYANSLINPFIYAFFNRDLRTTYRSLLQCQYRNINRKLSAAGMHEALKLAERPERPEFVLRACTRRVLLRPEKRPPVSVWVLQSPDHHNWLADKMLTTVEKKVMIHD
Sequence of Neurotensin receptor type 1 (P30989 whole entry): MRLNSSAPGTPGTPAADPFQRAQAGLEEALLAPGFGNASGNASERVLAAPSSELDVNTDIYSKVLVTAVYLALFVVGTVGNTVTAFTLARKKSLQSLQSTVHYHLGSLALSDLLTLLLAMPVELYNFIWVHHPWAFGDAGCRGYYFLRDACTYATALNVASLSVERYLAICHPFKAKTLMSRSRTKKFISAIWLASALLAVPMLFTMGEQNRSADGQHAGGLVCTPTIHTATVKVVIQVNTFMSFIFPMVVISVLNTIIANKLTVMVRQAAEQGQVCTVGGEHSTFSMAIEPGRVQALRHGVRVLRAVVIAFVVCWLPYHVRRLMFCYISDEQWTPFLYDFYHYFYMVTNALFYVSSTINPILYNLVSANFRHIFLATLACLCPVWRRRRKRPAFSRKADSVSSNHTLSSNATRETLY

As a reminder, the AC50 is the concentration at which the activity in the assay is half-maximal. Read a low AC50 as greater potency. For the compound `O=C(CCCCCCC(=O)Nc1ccccc1)NO` [VORINOSTAT], the AC50 in assay [1] is above 10 µM; in assay [2], above 10 µM; in assay [3], above 30 µM; on Histamine H2 receptor, above 10 µM; in assay [4], above 10 µM.
Consider `CCc1nn(CCCN2CCN(c3cccc(Cl)c3)CC2)c(=O)n1CCOc1ccccc1` [NEFAZODONE], for which the concentration at half-maximal activity (AC50) in assay [1] is 0.237 µM; in assay [4] it was 0.084 µM; at Progesterone receptor, above 30 µM; in assay [5] it was above 30 µM.
As to `COc1cc(Nc2c(C#N)cnc3cc(OCCCN4CCN(C)CC4)c(OC)cc23)c(Cl)cc1Cl` [BOSUTINIB], the half-maximal activity concentration (AC50) in assay [1] is above 10 µM; in assay [2] it was 6.01 µM; on Progesterone receptor, above 30 µM; in assay [6], above 3 µM; in assay [5], above 30 µM.
For the compound `CCc1ccc(CCOc2ccc(CC3SC(=O)NC3=O)cc2)nc1` (stereo not given) [PIOGLITAZONE], the half-maximal activity concentration (AC50) in assay [1] was above 10 µM; in assay [2] it was 7.05 µM; on Histamine H2 receptor it was above 10 µM; in assay [4], above 10 µM; on Progesterone receptor it was above 30 µM; in assay [5] it was above 30 µM.
Regarding `OCCN1CCN(CCCN2c3ccccc3C=Cc3ccccc32)CC1` [OPIPRAMOL], the AC50 was above 30 µM in assay [3] and 25.7 µM in assay [6].
Consider `NS(=O)(=O)c1cc2c(cc1Cl)NCNS2(=O)=O` [HYDROCHLOROTHIAZIDE], for which the half-maximal activity concentration (AC50) in assay [1] was above 10 µM; in assay [2] it was above 10 µM; on Histamine H2 receptor, above 10 µM; in assay [4], 6.91 µM; on Progesterone receptor, above 30 µM; in assay [5], above 30 µM.
Take `COC(=O)[C@@H]1CC2=CC(=O)CC[C@]2(C)[C@@]23O[C@@H]2C[C@@]2(C)[C@@H](CC[C@@]24CCC(=O)O4)[C@H]13` [EPLERENONE]: the AC50 in assay [2] was above 10 µM; in assay [3] it was above 30 µM; at Histamine H2 receptor, above 10 µM; in assay [4], above 10 µM; in assay [5] it was above 30 µM.
`NC(N)=Nc1nc(CSCCC(N)=NS(N)(=O)=O)cs1` [FAMOTIDINE]: the AC50 in assay [1] is above 10 µM; in assay [2] it was above 10 µM; on Histamine H2 receptor, 0.0063 µM; in assay [4] it was above 10 µM; on Progesterone receptor, above 30 µM; in assay [5] it was above 30 µM.
In the case of `NC(=O)c1cnccn1` [PYRAZINAMIDE], the AC50 in assay [1] was above 10 µM; in assay [2], above 10 µM; at Histamine H2 receptor it was above 10 µM; in assay [4], above 10 µM; on Progesterone receptor, above 30 µM; in assay [5], above 30 µM.
For `N[C@@H](C(=O)N[C@@H]1C(=O)N2C(C(=O)O)=C(Cl)CS[C@H]12)c1ccccc1` [CEFACLOR ANHYDROUS], the half-maximal activity concentration (AC50) in assay [3] was above 30 µM.
For `Nc1nc(N)c2nc(-c3ccccc3)c(N)nc2n1`, the concentration at half-maximal activity (AC50) is above 10 µM in assay [1]; above 10 µM in assay [2]; above 10 µM on Histamine H2 receptor; above 10 µM in assay [4]; above 30 µM at Progesterone receptor; above 30 µM in assay [5].
For the compound `COc1cc2c(cc1OC)C(=O)C(CC1CCN(Cc3ccccc3)CC1)C2` (stereo not given) [DONEPEZIL], the half-maximal activity concentration (AC50) in assay [1] was above 10 µM; in assay [2] it was 10.4 µM; on Histamine H2 receptor, above 10 µM; at Progesterone receptor, above 30 µM; in assay [6], 5.32 µM; in assay [5] it was above 30 µM.
Consider `C[C@H]1O[C@H](O[C@H]2[C@H](O)[C@@H](O)[C@@H](O[C@H]3[C@H](O)[C@@H](O)C(O)O[C@@H]3CO)O[C@@H]2CO)[C@H](O)[C@@H](O)[C@@H]1N[C@H]1C=C(CO)[C@@H](O)[C@H](O)[C@H]1O` (stereo not given in full) [ACARBOSE], for which the AC50 in assay [1] was above 10 µM; in assay [2] it was above 10 µM; on Histamine H2 receptor it was above 10 µM; in assay [4] it was above 10 µM; at Progesterone receptor it was above 30 µM; in assay [5], above 30 µM.
Take `CCOC(=O)[C@H](CCc1ccccc1)N[C@@H](C)C(=O)N1CCC[C@H]1C(=O)O`: the AC50 is above 10 µM in assay [1]; above 10 µM in assay [2]; above 10 µM at Histamine H2 receptor; above 10 µM in assay [4]; above 30 µM in assay [5].
The compound `NC(=O)c1ncn([C@@H]2O[C@H](CO)[C@@H](O)[C@H]2O)c1O` [MIZORIBINE] came in with an AC50 in assay [3] above 30 µM.
